Results: the supplement of paper PMC4862054

Tests used:
CAL-51 [1] = conditions: 72 h
Procedure, shortened: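 Compound dissolved in 5 µl medium was placed in 384-well plates before 20 µl of breast cancer cell suspension was added, and the plates were incubated for 72 h. Cells then received 2.5 µl CellTiter-Blue for 2 h at 37 °C, and fluorescence was read at 560/590 nm. EC50 values come from percent-inhibition dose-response fits that were censored at the highest concentration, with plates normalised to vehicle and a positive kill control and rows with a zero drug sensitivity score excluded.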

Hs578T = assay: normalised response (% of control), CellTiter-Glo; higher = more viable cells (100 = DMSO, 0 = benzethonium chloride kill control); conditions: incubation time: 72 h
Description: (§1)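 DSRT, 72 h incubation, CellTox Green / CellTiter-Glo readout. Signal is normalised to DMSO and benzethonium chloride controls. Value is the normalised response at the highest dose.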

SK-BR-3 = assay: as above; conditions: incubation time: 72 h
Description: as §1

CAL-51 [2] = assay: as above; conditions: incubation time: 72 h
Description: as §1

HCC1599 = assay: as above; conditions: incubation time: 72 h
Description: as §1

CAL-148 = assay: as above; conditions: incubation time: 72 h
Description: as §1

HCC1937 = assay: as above; conditions: incubation time: 72 h
Description: as §1

MDA-MB-453 = assay: as above; conditions: incubation time: 72 h
Description: as §1

CAL-120 = assay: as above; conditions: incubation time: 72 h
Description: as §1

MFM-223 = assay: as above; conditions: incubation time: 72 h
Description: as §1

BT-549 = assay: as above; conditions: incubation time: 72 h
Description: as §1

HCC1143 = assay: as above; conditions: incubation time: 72 h
Description: as §1

BT-474 = assay: as above; conditions: incubation time: 72 h
Description: as §1

DU-4475 = assay: as above; conditions: incubation time: 72 h
Description: as §1

MCF-10A = assay: as above; conditions: incubation time: 72 h
Description: as §1

MDA-MB-436 = assay: as above; conditions: incubation time: 72 h
Description: as §1

MDA-MB-468 = assay: as above; conditions: incubation time: 72 h
Description: as §1

CAL-85-1 = assay: as above; conditions: incubation time: 72 h
Description: as §1

HDQ-P1 = assay: as above; conditions: incubation time: 72 h
Description: as §1

MDA-MB-231 = assay: as above; conditions: incubation time: 72 h
Description: as §1

| SMILES | EC50, CellTiter-Blue viability (CAL-51 [1]) [nM] | normalised response (Hs578T) [%] | normalised response (SK-BR-3) [%] | normalised response (CAL-51 [2]) [%] | normalised response (HCC1599) [%] | normalised response (CAL-148) [%] | normalised response (HCC1937) [%] | normalised response (MDA-MB-453) [%] | normalised response (CAL-120) [%] | normalised response (MFM-223) [%] | normalised response (BT-549) [%] | normalised response (HCC1143) [%] | normalised response (BT-474) [%] | normalised response (DU-4475) [%] | normalised response (MCF-10A) [%] | normalised response (MDA-MB-436) [%] | normalised response (MDA-MB-468) [%] | normalised response (CAL-85-1) [%] | normalised response (HDQ-P1) [%] | normalised response (MDA-MB-231) [%] |
| --- | --- | --- | --- | --- | --- | --- | --- | --- | --- | --- | --- | --- | --- | --- | --- | --- | --- | --- | --- | --- |
| CN1CCC(COc2cnc(-c3cccc(Cn4nc(-c5cccc(C#N)c5)ccc4=O)c3)nc2)CC1 | 4990 | – | – | – | – | – | – | – | – | – | – | – | – | – | – | – | – | – | – | – |
| CN(C)C/C=C/C(=O)Nc1cc2c(Nc3ccc(F)c(Cl)c3)ncnc2cc1O[C@H]1CCOC1 [Afatinib] | 4750 | – | – | – | – | – | – | – | – | – | – | – | – | – | – | – | – | – | – | – |
| CN1CC[C@H](c2c(O)cc(O)c3c(=O)cc(-c4ccccc4Cl)oc23)[C@H](O)C1 [Alvocidib] | 185 | – | – | – | – | – | – | – | – | – | – | – | – | – | – | – | – | – | – | – |
| Nc1nc(Cl)nc2c1ncn2[C@H]1C[C@H](O)[C@@H](CO)O1 [Cladribine] | > 1000 | – | – | – | – | – | – | – | – | – | – | – | – | – | – | – | – | – | – | – |
| Nc1ccn([C@@H]2O[C@H](CO)[C@@H](O)[C@@H]2O)c(=O)n1 [Cytarabine] | 266 | – | – | – | – | – | – | – | – | – | – | – | – | – | – | – | – | – | – | – |
| Cc1c2oc3c(C)ccc(C(=O)N[C@@H]4C(=O)N[C@H](C(C)C)C(=O)N5CCC[C@H]5C(=O)N(C)CC(=O)N(C)[C@@H](C(C)C)C(=O)O[C@@H]4C)c3nc-2c(C(=O)N[C@@H]2C(=O)N[C@H](C(C)C)C(=O)N3CCC[C@H]3C(=O)N(C)CC(=O)N(C)[C@@H](C(C)C)C(=O)O[C@@H]2C)c(N)c1=O [Dactinomycin] | 2.72 | – | – | – | – | – | – | – | – | – | – | – | – | – | – | – | – | – | – | – |
| Cc1c2oc3c(C)ccc(C(=O)N[C@@H]4C(=O)N[C@H](C(C)C)C(=O)N5CCC[C@H]5C(=O)N(C)CC(=O)N(C)[C@@H](C(C)C)C(=O)O[C@@H]4C)c3nc-2c(C(=O)N[C@@H]2C(=O)N[C@H](C(C)C)C(=O)N3CCC[C@H]3C(=O)N(C)CC(=O)N(C)[C@@H](C(C)C)C(=O)O[C@@H]2C)c(N)c1=O [Dactinomycin] (1000 nM) | – | 3.61 | 1.39 | 9.31 | 7.78 | 52 | 25.2 | 16.7 | 33.1 | 11.9 | 1.88 | 11.3 | 12.8 | 3.22 | 2.65 | 17.1 | 4.19 | 5.09 | 24.8 | 2.02 |
| COc1cccc2c1C(=O)c1c(O)c3c(c(O)c1C2=O)C[C@@](O)(C(=O)CO)C[C@@H]3O[C@H]1C[C@H](N)[C@H](O)[C@H](C)O1 [Doxorubicin] | 164 | – | – | – | – | – | – | – | – | – | – | – | – | – | – | – | – | – | – | – |
| COc1cccc2c1C(=O)c1c(O)c3c(c(O)c1C2=O)C[C@@](O)(C(=O)CO)C[C@@H]3O[C@H]1C[C@H](N)[C@H](O)[C@H](C)O1 [Doxorubicin] (1000 nM) | – | 45.6 | 8.83 | 23.7 | 33.2 | 1.22 | 51.4 | 20.7 | 43.4 | 72.6 | 14.9 | 46.2 | 22.1 | 0.14 | 44 | 28.6 | 7.26 | 17.7 | 46.7 | 29 |
| Cc1ccc(F)c(NC(=O)Nc2ccc(-c3cccc4[nH]nc(N)c34)cc2)c1 [Linifanib] (1000 nM) | – | 101 | 108 | 91.6 | 105 | 118 | 103 | 110 | 109 | 108 | 103 | 108 | 101 | 106 | 106 | 111 | 108 | 101 | 115 | 109 |
| S=c1[nH]cnc2nc[nH]c12 [Mercaptopurine] (10000 nM) | – | 47.3 | 85.8 | 80.5 | 27.5 | 85.5 | 31.8 | 102 | 27.3 | 85.5 | 94.8 | 101 | 31.6 | 56.5 | 95.3 | 85.8 | 96.8 | 79.3 | 35.9 | 40.7 |
| Clc1ccc(C(c2ccccc2Cl)C(Cl)Cl)cc1 (stereo not drawn) [Mitotane] (10000 nM) | – | 102 | 98.7 | 64.2 | 113 | 99.1 | 94.9 | 94.9 | 99.2 | 97 | 95.6 | 98.7 | 88.2 | 95.9 | 102 | 97.4 | 96.2 | 97 | 99.8 | 94.9 |
| COc1cccc2cc(-c3nc([C@H]4CC[C@H](C(=O)O)CC4)n4ncnc(N)c34)[nH]c12 [OSI-027] (10000 nM) | – | 33.4 | 22.9 | 38 | 74.2 | 39.2 | 47.6 | 32.2 | 30.1 | 28.5 | 24.8 | 46.5 | 51.8 | 61.2 | 30.5 | 45.6 | 33.4 | 30.1 | 37.5 | 45.7 |
| OC[C@H]1O[C@@H](n2cnc3c2N=CNC[C@H]3O)C[C@@H]1O [Pentostatin] (10000 nM) | – | 98 | 104 | 90.2 | 108 | 105 | 98.9 | 110 | 101 | 99.3 | 92.5 | 99.1 | 88.9 | 99.8 | 106 | 96.8 | 103 | 99.2 | 98.1 | 103 |
| N#CC[C@H](C1CCCC1)n1cc(-c2ncnc3[nH]ccc23)cn1 [Ruxolitinib] (10000 nM) | – | 102 | 91.5 | 88.9 | 94.4 | 98.2 | 96.9 | 87.6 | 77.7 | 73.2 | 101 | 93.3 | 81.8 | 98.4 | 72.5 | 88.4 | 88.7 | 98.5 | 86.3 | 86 |
| C=CC[C@@H]1/C=C(\C)C[C@H](C)C[C@H](OC)[C@H]2O[C@@](O)(C(=O)C(=O)N3CCCC[C@H]3C(=O)O[C@H](/C(C)=C/[C@@H]3CC[C@@H](O)[C@H](OC)C3)[C@H](C)[C@@H](O)CC1=O)[C@H](C)C[C@@H]2OC [Tacrolimus] (10000 nM) | – | 94.5 | 89.3 | 104 | 119 | 103 | 94.3 | 101 | 105 | 81.2 | 90.8 | 86.8 | 88.5 | 103 | 103 | 98 | 85.4 | 99.6 | 103 | 91.5 |
| C=CCNC1=C2C[C@@H](C)C[C@H](OC)[C@H](O)[C@@H](C)/C=C(\C)[C@H](OC(N)=O)[C@@H](OC)/C=C\C=C(/C)C(=O)NC(=CC1=O)C2=O [Tanespimycin] (10000 nM) | – | 34.2 | 37.1 | 14.9 | 54.5 | 25 | 34 | 28.6 | 42.3 | 38.1 | 35.5 | 32.6 | 22.3 | -0.09 | 14 | 41.8 | 25.5 | 21.2 | 20.7 | 15.5 |
| CO[C@H]1C[C@@H]2CC[C@@H](C)[C@@](O)(O2)C(=O)C(=O)N2CCCC[C@H]2C(=O)O[C@H]([C@H](C)C[C@@H]2CC[C@@H](OC(=O)C(C)(CO)CO)[C@H](OC)C2)CC(=O)[C@H](C)/C=C(\C)[C@@H](O)[C@@H](OC)C(=O)[C@H](C)C[C@H](C)/C=C/C=C/C=C/1C [Temsirolimus] (100 nM) | – | 67.1 | 53 | 61 | 90.8 | 58.1 | 66.8 | 58.9 | 65.4 | 67.7 | 56.3 | 65.2 | 84.3 | 73.6 | 88.6 | 83 | 56.9 | 60.5 | 77.9 | 90.2 |
| C[C@]1(c2nc3c(C(N)=O)cccc3[nH]2)CCCN1 [Veliparib] (10000 nM) | – | 98.9 | 90.9 | 96.1 | 77.1 | 99.2 | 93.6 | 121 | 93.1 | 97.3 | 95.7 | 91.6 | 82.1 | 96.8 | 97.3 | 94.5 | 75.5 | 104 | 102 | 93.3 |
| CC[C@]1(O)C[C@@H]2CN(CCc3c([nH]c4ccccc34)[C@@](C(=O)OC)(c3cc4c(cc3OC)N(C)[C@H]3[C@@](O)(C(=O)OC)[C@H](OC(C)=O)[C@]5(CC)C=CCN6CC[C@]43[C@@H]65)C2)C1 [Vinblastine] (1000 nM) | – | 15.3 | 17.6 | 23.9 | 12.6 | 55.3 | 69.3 | 64.7 | 59.1 | 44.6 | 34.3 | 50.2 | 46.8 | 37.8 | 71.6 | 22.6 | 33.9 | 50.3 | 70.6 | 43.4 |
| CS(=O)(=O)c1ccc(C(=O)Nc2ccc(Cl)c(-c3ccccn3)c2)c(Cl)c1 [Vismodegib] (10000 nM) | – | 99.5 | 87.3 | 97.8 | 88.8 | 86.5 | 90 | 87.9 | 99.3 | 91.4 | 102 | 89.9 | 90.4 | 97.8 | 93.9 | 96.8 | 97.2 | 103 | 91.7 | 98 |
